Our source for the IC50, AC50 and EC50 values is ChEMBL document CHEMBL1201862, “PubChem BioAssay data set” (2004).

What is called IC50 is the midpoint of a concentration-inhibition curve. Usually AC50 stands for the midpoint of the concentration-response curve, whichever way the signal moves. For orientation: EC50 means the concentration giving half of the maximal effect.

For one test, the target named is T1, Hexokinase HKDC1 (Homo sapiens, UniProt Q2TB90).
T1 sequence (Q2TB90 whole entry): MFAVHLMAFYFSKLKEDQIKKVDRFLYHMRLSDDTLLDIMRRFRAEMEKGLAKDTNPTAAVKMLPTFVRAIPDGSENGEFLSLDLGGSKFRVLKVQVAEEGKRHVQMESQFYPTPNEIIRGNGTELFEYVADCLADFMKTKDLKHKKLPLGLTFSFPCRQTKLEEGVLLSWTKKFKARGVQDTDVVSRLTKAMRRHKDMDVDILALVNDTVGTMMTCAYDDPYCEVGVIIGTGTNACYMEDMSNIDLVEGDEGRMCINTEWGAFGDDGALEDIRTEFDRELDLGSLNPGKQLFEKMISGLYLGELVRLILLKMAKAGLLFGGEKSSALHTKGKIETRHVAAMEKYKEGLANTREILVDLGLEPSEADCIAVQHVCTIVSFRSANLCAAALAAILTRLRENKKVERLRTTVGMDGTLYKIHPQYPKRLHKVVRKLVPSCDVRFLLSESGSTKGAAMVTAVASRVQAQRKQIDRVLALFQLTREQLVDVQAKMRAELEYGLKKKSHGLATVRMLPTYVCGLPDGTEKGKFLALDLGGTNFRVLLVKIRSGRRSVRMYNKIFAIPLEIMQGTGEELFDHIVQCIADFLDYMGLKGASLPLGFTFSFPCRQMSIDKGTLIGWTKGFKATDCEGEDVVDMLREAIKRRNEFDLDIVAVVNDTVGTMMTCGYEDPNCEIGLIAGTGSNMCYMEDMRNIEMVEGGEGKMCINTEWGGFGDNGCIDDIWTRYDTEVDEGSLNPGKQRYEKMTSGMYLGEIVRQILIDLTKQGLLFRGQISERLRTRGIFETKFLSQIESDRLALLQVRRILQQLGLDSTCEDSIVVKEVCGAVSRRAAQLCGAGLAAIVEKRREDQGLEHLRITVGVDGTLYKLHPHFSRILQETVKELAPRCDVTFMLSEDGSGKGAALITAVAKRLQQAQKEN
Nature of the test: HKDC1 hexokinase inhibitors, dose response, biochemical, W721R variant (AID 504729). Format: functional.

Test [1] has as its target Scavenger receptor class B member 1 (Mus musculus, UniProt Q61009). The test can be described thus: inhibitors of SR-BI mediated HDL lipid uptake, dose response, ldlA[mSR-BI] cells, fluorescence, cherry pick (AID 493194).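 Further: cellular uptake of fluorescent DiI-labeled HDL measured as cell fluorescence.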 Format: functional, cell-based.
Test [2] can be described thus: off-target signal loss in HeLa-CEM21 co-culture – HeLa F-luc CTL cells, cherry-picked, counter-screen for HIV-1 Env fusion inhibitor project, dose response (AID 652040).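 Further: potency for signal decrease marking cytotoxic or nonspecific inhibition.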 Format: functional, cell-based.
Test [3] is described as follows: human group III sPLA2 inhibitors, dose response, biochemical, QFRET, IC50 (AID 743457).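 Further: green fluorescence rise as the enzyme cleaves BODIPY PC-A2 in liposomes; potency for inhibition of the enzyme.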
Another test addresses Exodeoxyribonuclease V (Escherichia coli (strain K12), UniProt P04993+P07648+P08394). The test can be described thus: E. coli RecBCD inhibitors, dose response, counter-screen for AddAB inhibitor project, absorbance, V66 E. coli, mutant T4 phage (AID 492957). Format: functional, cell-based, Escherichia coli str. K-12 substr. MG1655. On the technique in general: Counterscreens check selectivity or assay interference.

The nature of test [4]: Counterscreen for AddAB inhibitors: absorbance-based bacterial cell-based high throughput dose response assay for inhibitors of bacterial viability. [Related pubchem assays (depositor defined):AID435030, AID449728, AID449731, AID488942, AID488955, AID488956]. Format: functional.
Another test addresses SUMO-activating enzyme (Homo sapiens, UniProt Q9UBT2). Nature of the test: SUMOylation inhibitor hit validation, confirmation, SUMOylation inhibitor project, biochemical, AlphaScreen (AID 2018). The test is classed as functional. (In general: Bead proximity is the source of the signal in Alpha formats.)
Test [5] concerns HEK293. The test can be described thus: NOD1 signaling inhibitors, primary screen, cell-based, luminescence, uHTS (AID 1578). Format: functional. To be noted: Homo sapiens.
The test system of test [6] is Streptococcus sp. 'group A'. Nature of the test: growth inhibition of control SK(-) GAS strain, dose response, counter-screen for streptokinase expression inhibitor project, luminescence, kanamycin, BacTiterGlo, confirmation (AID 1900). Format: functional, organism-based.
Test [7] has as its system HEK293. The test can be described thus: cells. The test is classed as functional, cell-based. As to conditions: Homo sapiens.
In a further test the target is T2, Streptokinase A (Streptococcus pyogenes serotype M1, UniProt P10520).
T2 sequence (P10520 whole entry): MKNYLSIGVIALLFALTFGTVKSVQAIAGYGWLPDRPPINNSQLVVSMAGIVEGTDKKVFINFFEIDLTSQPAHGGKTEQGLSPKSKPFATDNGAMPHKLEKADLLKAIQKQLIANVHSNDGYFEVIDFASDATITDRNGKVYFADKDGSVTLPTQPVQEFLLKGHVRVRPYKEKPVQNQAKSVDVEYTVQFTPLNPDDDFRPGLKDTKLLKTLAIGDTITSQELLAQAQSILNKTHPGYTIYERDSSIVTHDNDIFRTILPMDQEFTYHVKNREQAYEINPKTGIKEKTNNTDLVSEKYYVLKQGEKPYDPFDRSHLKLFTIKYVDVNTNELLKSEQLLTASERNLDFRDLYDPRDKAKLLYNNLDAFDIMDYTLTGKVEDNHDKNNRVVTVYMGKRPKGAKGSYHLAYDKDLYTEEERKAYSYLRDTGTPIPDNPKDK
Nature of the test: S. pyogenes streptokinase expression inhibitors, potency, dose response, plasminogen activation absorbance, OD405 (AID 1914).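 Further: secreted streptokinase activity via plasminogen activation per viability signal from cell pellet.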 The test is classed as functional, Streptococcus pyogenes M1 GAS.

Test [8] deals with HEK293. The test can be described thus: cells. The test is classed as functional, cell-based. As to conditions: Homo sapiens. The source holds these as a separate data set.
Test [9] has as its system HEK293. Nature of the test: NOD2 signaling inhibitors in MDP-stimulated cells, cell-based, uHTS, luminescence (AID 2001). As to conditions: Homo sapiens. Format: functional.
For a further test, the system named is Streptococcus. The test can be described thus: Group A Streptococcus viability loss, dose response, counter-screen for streptokinase expression inhibitor project, luminescence, BacTiterGlo (AID 1915).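 Further: potency for reduction of bacterial viability or growth.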 Format: functional, organism-based.
The subject of another test is INS1. The test can be described thus: beta cell apoptosis inhibitors, cytokine rescue, dose response, luminescence, retest (AID 449756).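 Further: cell death triggered by IL-1 beta plus TNF-alpha plus IFN-gamma mixture; protective hits raise ATP signal compared with cytokine alone wells.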 Format: functional, cell-based. To be noted: Rattus norvegicus.
Test [10] addresses Eukaryotic translation initiation factor 4H (Homo sapiens, UniProt Q15056). Nature of the test: human eIF4H binding inhibitors, primary screen, translation initiation inhibitor project, biochemical, uHTS, fluorescence polarization (AID 2012).
The target of test [11] is Luciferin 4-monooxygenase (Photinus pyralis, UniProt P08659). The test can be described thus: firefly luciferase enzyme inhibitors, dose response, biochemical, luminescence (AID 1891).
The nature of test [12]: Luminescence Cell-Based Dose Confirmation HTS to Identify Inhibitors of Platelet Dense Granule Release. [Related pubchem assays: 1663 (Primary HTS), 1678 (Summary of Project)]. The test is classed as functional.
The nature of test [13]: inhibitors of intracellular T. cruzi replication, confirmation, NIH3T3 host cells, beta-gal luminescence (AID 2044).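 Further: intracellular parasites grown in NIH/3T3 mouse fibroblasts as host cells; luminescent beta-galactosidase reporter signal from transgenic T. cruzi replicating inside host cells; inhibitors lower the luminescence signal.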 Format: functional, cell-based.
The nature of test [14]: cytotoxicity toward NIH3T3 fibroblasts, dose response, counter-screen, cell-based, ATP luminescence, mouse fibroblasts (AID 2010).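 Further: cells exposed to compound for about 90 hours before reading.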 The test is classed as functional.
The target of test [15] is Polyadenylate-binding protein 1 (Homo sapiens, UniProt P11940). The test can be described thus: PABP poly(A) RNA binding inhibitors, primary screen, biochemical, fluorescence polarization, uHTS (AID 2014). A general note: Polarisation of emitted light reports the rotation of a fluorescent probe.
Test [16] has as its target DNA dC->dU-editing enzyme APOBEC-3A (Homo sapiens, UniProt P31941). The test can be described thus: Dose Response confirmation of small molecule APOBEC3A DNA Deaminase Inhibitors via a fluorescence-based single-stranded DNA deaminase assay. [Related pubchem assays (depositor defined):AID493011, AID493024]. The test is classed as functional.
Test [17] addresses T3, Short transient receptor potential channel 4 (Mus musculus, UniProt Q9QUQ5).
T3 sequence (Q9QUQ5 whole entry): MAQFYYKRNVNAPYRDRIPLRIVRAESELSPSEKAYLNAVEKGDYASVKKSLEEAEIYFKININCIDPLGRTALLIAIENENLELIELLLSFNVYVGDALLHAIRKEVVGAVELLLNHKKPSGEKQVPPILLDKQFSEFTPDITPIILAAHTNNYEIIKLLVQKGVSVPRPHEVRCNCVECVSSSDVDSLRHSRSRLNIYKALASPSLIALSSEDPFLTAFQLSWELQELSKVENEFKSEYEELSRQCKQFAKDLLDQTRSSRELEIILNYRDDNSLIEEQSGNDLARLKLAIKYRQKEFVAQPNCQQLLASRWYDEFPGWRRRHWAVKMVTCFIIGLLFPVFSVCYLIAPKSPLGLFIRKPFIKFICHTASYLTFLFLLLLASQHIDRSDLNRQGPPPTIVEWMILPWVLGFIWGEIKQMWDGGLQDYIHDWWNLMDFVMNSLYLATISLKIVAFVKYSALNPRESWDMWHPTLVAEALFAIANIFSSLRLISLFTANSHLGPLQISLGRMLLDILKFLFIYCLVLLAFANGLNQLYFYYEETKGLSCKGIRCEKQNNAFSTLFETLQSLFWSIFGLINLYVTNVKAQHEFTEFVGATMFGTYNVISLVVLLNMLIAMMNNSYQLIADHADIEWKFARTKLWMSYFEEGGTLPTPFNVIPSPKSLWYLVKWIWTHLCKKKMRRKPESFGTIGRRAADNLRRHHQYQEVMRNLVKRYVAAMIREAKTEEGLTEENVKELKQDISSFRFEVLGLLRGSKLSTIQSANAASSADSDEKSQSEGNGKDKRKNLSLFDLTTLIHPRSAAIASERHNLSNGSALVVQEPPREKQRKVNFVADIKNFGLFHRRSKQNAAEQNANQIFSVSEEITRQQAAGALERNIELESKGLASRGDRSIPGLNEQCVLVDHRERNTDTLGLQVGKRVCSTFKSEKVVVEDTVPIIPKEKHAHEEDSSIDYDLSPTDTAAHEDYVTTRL
The test can be described thus: mouse TRPC4 channel inhibitors, dose response, cell-based, HEK293 TRPC4/mu-opioid, Fluo-4 calcium (AID 434942).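 Further: potency of inhibitors blocking the TRPC4 calcium response.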 The test is classed as functional.

Test [18] can be described thus: cytotoxicity in HEK-293T cells, dose response, cytotoxicity control for TCR NF-kB inhibitor project, luminescence, T-cell screen hits (AID 489026).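 Further: cells exposed to compound about 14 hours before the viability readout.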 The test is classed as functional, cell-based.
Test [19] concerns the target DNA dC->dU-editing enzyme APOBEC-3G (Homo sapiens, UniProt Q9HC16). Format: functional.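 Further: Dose-response counterscreen measuring inhibition of APOBEC3G DNA deaminase activity, run while confirming APOBEC3A inhibitors.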
The target in test [20] is Cyclin-dependent kinase 5/CDK5 activator 1 (Homo sapiens, UniProt Q00535). The test can be described thus: CDK5/p35 kinase inhibitors, dose response, biochemical, cherry-picked samples, set 2 (AID 504545).

The source made the active and inactive calls.

Chain of Exodeoxyribonuclease V (P04993 whole entry): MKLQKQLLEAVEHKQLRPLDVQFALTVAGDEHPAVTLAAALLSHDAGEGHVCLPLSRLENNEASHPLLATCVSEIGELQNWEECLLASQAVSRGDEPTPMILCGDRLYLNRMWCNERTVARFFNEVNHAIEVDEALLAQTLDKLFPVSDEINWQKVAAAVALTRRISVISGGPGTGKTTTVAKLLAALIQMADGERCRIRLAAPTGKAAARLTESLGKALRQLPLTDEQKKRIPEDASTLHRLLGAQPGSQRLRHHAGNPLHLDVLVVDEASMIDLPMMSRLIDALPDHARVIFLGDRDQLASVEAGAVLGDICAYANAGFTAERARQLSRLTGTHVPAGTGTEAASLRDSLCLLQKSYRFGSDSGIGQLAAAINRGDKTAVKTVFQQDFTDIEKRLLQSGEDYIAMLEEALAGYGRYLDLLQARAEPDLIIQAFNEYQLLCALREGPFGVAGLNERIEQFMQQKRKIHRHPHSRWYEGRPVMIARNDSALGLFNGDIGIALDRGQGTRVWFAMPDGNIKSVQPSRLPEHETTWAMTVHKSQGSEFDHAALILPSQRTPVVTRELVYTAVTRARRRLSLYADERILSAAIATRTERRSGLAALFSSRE
Chain of Exodeoxyribonuclease V (P07648 whole entry): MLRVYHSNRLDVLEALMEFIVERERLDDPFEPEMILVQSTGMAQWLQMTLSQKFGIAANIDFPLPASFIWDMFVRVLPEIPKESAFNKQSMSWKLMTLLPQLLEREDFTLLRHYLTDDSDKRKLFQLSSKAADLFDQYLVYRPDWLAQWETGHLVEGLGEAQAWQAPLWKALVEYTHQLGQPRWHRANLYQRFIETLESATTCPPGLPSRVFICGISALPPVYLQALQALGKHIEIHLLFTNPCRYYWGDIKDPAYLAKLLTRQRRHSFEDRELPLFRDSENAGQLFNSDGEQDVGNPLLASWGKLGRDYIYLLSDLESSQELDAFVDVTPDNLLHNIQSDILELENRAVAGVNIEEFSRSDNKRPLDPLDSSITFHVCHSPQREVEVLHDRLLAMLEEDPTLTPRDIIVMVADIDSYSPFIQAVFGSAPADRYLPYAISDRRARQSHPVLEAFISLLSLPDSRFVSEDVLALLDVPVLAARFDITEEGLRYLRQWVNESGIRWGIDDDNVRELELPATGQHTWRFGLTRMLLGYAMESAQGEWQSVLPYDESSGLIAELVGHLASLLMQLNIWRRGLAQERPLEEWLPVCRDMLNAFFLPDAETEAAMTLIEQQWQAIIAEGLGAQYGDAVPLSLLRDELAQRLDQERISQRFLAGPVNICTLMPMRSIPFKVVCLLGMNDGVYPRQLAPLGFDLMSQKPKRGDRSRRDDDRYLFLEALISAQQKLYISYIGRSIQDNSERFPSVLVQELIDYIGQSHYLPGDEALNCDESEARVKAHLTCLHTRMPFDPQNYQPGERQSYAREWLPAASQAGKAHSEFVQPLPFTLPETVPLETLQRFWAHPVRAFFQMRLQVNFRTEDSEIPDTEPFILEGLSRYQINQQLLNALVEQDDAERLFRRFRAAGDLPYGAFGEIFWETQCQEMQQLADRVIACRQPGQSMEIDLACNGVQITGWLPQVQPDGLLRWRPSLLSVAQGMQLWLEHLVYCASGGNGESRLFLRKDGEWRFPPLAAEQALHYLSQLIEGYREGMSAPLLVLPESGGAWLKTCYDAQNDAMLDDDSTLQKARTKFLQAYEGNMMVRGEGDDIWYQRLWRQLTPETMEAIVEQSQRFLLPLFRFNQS
Chain of Exodeoxyribonuclease V (P08394 whole entry): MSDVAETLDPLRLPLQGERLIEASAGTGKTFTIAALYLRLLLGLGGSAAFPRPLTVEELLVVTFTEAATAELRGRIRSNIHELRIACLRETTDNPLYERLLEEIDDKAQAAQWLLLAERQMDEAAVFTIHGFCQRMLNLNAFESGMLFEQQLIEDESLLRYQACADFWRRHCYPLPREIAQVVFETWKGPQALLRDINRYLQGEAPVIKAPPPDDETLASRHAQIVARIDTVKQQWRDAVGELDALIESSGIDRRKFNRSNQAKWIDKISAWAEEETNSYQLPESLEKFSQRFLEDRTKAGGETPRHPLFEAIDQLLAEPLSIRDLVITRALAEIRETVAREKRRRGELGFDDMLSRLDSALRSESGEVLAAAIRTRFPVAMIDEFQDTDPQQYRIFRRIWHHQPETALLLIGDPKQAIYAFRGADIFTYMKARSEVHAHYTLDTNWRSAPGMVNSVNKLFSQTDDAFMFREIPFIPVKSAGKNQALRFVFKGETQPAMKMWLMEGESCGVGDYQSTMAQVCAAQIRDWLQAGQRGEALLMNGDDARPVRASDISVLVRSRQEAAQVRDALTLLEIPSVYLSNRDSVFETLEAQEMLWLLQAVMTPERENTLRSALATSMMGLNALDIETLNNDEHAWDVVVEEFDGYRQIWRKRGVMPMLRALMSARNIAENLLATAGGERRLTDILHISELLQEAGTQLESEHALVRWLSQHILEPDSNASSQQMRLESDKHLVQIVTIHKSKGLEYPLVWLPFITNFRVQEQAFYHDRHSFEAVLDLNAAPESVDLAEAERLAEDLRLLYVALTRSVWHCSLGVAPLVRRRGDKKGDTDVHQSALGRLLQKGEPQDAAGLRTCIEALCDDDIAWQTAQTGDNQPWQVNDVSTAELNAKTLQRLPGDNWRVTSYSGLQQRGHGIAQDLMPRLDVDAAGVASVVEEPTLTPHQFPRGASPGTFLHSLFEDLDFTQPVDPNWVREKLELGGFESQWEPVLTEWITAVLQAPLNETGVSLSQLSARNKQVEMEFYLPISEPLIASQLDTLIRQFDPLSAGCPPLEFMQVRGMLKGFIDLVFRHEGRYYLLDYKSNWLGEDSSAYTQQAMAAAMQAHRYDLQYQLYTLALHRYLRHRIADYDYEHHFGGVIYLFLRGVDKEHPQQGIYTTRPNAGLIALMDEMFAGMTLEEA
Chain of Scavenger receptor class B member 1 (Q61009 whole entry, the tested form may be a part): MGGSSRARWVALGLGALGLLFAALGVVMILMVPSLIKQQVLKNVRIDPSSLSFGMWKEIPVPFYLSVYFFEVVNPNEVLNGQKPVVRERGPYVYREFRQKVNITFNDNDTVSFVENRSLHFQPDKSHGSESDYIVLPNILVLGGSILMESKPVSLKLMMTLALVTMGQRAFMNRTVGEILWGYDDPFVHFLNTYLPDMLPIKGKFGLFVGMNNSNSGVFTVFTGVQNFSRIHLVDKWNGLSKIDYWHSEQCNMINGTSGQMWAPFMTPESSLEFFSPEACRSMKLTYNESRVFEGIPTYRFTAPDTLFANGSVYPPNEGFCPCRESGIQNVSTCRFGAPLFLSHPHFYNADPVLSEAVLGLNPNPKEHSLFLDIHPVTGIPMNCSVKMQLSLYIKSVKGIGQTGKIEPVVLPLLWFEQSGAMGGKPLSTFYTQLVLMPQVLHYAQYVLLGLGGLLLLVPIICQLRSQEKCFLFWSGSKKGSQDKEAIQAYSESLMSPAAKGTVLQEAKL
Chain of Cyclin-dependent kinase 5/CDK5 activator 1 (Q00535 whole entry): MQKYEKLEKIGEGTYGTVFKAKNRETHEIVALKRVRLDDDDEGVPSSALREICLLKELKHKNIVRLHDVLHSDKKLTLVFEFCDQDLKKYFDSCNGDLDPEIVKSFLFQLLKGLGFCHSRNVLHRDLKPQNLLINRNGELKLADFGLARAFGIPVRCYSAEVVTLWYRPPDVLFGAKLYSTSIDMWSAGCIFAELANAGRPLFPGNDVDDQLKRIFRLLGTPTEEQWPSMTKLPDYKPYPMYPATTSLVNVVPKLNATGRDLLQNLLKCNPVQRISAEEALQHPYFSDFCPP
Chain of Cyclin-dependent kinase 5/CDK5 activator 1 (Q15078 whole entry, further chain): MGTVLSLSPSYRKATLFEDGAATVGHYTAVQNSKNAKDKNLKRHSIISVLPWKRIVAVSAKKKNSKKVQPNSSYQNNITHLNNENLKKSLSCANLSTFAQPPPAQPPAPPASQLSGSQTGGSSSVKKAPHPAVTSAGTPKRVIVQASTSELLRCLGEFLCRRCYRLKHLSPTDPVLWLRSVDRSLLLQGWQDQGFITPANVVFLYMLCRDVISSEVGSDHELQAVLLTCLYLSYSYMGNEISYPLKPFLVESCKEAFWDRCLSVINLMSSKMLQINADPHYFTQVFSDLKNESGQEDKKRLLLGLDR
Chain of Luciferin 4-monooxygenase (P08659 whole entry): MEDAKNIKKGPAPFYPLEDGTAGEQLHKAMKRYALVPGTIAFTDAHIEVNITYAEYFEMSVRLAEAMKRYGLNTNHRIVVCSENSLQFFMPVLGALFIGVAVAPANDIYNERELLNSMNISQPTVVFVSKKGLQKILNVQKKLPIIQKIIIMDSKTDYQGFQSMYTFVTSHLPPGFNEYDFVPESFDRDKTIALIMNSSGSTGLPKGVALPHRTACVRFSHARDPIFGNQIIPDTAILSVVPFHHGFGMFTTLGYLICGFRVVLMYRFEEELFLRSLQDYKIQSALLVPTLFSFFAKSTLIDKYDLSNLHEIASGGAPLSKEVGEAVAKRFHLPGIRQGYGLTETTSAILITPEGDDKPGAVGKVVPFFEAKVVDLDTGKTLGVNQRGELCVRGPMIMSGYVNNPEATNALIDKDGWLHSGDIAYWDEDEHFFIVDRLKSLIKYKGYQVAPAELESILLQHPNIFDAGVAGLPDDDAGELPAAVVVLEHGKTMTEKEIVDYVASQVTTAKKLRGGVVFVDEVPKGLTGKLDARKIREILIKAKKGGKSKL
Chain of DNA dC->dU-editing enzyme APOBEC-3G (Q9HC16 whole entry): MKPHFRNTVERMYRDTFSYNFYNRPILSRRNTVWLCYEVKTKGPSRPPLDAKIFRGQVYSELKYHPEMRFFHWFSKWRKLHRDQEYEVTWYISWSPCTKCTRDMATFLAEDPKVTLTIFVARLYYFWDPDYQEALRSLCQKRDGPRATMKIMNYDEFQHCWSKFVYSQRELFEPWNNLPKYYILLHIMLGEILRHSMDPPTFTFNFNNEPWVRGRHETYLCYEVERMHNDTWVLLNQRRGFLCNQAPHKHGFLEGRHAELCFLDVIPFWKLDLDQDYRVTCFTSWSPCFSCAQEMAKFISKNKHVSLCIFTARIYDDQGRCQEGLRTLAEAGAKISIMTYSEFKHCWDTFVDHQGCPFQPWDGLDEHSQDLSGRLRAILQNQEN

Take `Cc1cc2cc(CCNC(=O)c3ccc(S(=O)(=O)N4CCCC4)cc3)c(O)nc2cc1C`: the concentration for half-maximal inhibition (IC50) on Hexokinase HKDC1 was 13.6 µM (active).
For the compound `COc1ccccc1Nc1nc(-c2c(C)[nH]c3ccccc23)cs1`, the half-maximal activity concentration (AC50) in test [1] was 19.4 µM (active).
As for `CCOc1ccc2c(c1)-c1c(ssc1=S)C(C)(C)N2C(=O)c1ccco1`, the AC50 in test [1] is 13.7 µM (active); in [2] it was 17.6 µM (active). For the same compound, the IC50 in test [3] was 46.2 µM (inactive).
Consider `CCOC(=O)c1cn(CC)c2cc(N3CCSCC3)c(F)cc2c1=O`, for which the IC50 on Exodeoxyribonuclease V was > 119 µM (inactive); in test [4], 63.8 µM (inactive).
Take `CCCCOc1ccc(/C=C/C(=O)Nc2ccc(C(N)=O)cc2)cc1`: at SUMO-activating enzyme, the IC50 was 96.7 µM (active).
Consider `C=CCSc1nsc(NC(=O)Nc2ccc(F)cc2)n1`, for which the concentration giving a half-maximal response (EC50) in the test with HEK293 [5] was 3.56 µM (active); in [6], 8.13 µM (active); at Streptokinase A, 23.4 µM (active); with Streptococcus, 30.4 µM (active). In addition, the IC50 in the test on HEK293 [7] was 2.64 µM (active); in the test on HEK293 [8], 10.1 µM (active); with HEK293 [9] it was 2.93 µM (active); at Exodeoxyribonuclease V it was > 119 µM (inactive); in test [4] it was > 119 µM (inactive). The half-maximal activity concentration (AC50) in the test on INS1 was 3.1 µM (active).
As to `CCCCCn1c2c(c(=N)c3ccccc31)CCC2`, the IC50 is > 100 µM (inactive) in test [10]; 5.93 µM (active) in [15]; 2.62 µM (active) in [16]; > 80 µM (inactive) in test [18]; 3.19 µM (active) in test [19]. For the same compound, the concentration giving a half-maximal response (EC50) is > 112 µM (not active) in test [11]; 788 nM (active) in test [12]; < 100 nM (active) in test [13]; > 60 µM (not active) in [14]; 1.5 µM (active) in test [17]; 6 nM (active) in the test “cells”.
On to `Cc1nn(-c2nccs2)c2c1C(=O)CC(C)(C)C2Br` (stereo not given), for which the AC50 in test [20] was 7.37 µM (active).
